Calls of active or inactive are those of the source. The calls are words filed in the database; no cut-off is given here.
Assays:
[1] = target: Cyclin-dependent kinase 1/cyclin B1 (Homo sapiens, UniProt P06493); assay: (§1) Inhibition of human recombinant GST-fused CDK1/cyclin B expressed in insect Sf9 cells using RBER-CHKtide as substrate assessed as incorporation of 33Pi after 60 mins by microplate scintillation counting analysis
[2] = target: Cyclin-dependent kinase 5/CDK5 activator 1 (Homo sapiens, UniProt Q00535); assay: (§2) Inhibition of human recombinant GST-fused CDK5/P25 expressed in insect Sf9 cells using RBER-CHKtide as substrate assessed as incorporation of 33Pi after 60 mins by microplate scintillation counting analysis
Chain of Cyclin-dependent kinase 5/CDK5 activator 1 (Q00535 whole entry, the tested form may be a part): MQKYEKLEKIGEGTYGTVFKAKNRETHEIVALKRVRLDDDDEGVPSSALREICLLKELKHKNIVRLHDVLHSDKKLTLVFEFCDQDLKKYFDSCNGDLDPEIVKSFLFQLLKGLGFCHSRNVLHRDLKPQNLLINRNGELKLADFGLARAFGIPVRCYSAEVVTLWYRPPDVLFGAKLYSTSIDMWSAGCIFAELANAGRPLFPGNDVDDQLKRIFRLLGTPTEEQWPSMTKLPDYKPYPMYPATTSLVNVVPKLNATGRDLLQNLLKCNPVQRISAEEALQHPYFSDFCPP
Chain of Cyclin-dependent kinase 5/CDK5 activator 1 (Q15078 whole entry, further chain, the tested form may be a part): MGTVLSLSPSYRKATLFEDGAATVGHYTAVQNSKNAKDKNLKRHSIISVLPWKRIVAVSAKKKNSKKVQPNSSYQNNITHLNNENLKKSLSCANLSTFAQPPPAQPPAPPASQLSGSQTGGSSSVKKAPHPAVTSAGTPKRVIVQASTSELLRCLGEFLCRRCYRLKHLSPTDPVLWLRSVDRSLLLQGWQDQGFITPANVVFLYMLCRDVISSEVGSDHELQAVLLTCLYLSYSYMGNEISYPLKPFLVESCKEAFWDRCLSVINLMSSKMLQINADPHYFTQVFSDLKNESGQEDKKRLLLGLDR

[3] = target: Glycogen synthase kinase-3 beta (Homo sapiens, UniProt P49841); assay: Inhibition of human recombinant GST-fused GSK-3beta expressed in insect Sf9 cells using RBER-CHKtide as substrate assessed as incorporation of 33Pi after 60 mins by microplate scintillation counting analysis
[4] = target: Cyclin-dependent kinase 1/cyclin B1 (Homo sapiens) (UniProt P06493+P14635); assay: as §1
Chain of Cyclin-dependent kinase 1/cyclin B1 (Homo sapiens) (P06493 whole entry, looked up): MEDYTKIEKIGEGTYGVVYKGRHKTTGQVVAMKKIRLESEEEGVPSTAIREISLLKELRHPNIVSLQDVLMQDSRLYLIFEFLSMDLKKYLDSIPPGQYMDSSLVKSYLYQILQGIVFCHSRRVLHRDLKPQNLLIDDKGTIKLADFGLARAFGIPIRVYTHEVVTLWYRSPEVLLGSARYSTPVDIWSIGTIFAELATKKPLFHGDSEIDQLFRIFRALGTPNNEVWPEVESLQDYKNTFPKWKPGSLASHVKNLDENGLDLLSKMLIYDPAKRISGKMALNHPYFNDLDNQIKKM
Chain of Cyclin-dependent kinase 1/cyclin B1 (Homo sapiens) (P14635 whole entry, looked up): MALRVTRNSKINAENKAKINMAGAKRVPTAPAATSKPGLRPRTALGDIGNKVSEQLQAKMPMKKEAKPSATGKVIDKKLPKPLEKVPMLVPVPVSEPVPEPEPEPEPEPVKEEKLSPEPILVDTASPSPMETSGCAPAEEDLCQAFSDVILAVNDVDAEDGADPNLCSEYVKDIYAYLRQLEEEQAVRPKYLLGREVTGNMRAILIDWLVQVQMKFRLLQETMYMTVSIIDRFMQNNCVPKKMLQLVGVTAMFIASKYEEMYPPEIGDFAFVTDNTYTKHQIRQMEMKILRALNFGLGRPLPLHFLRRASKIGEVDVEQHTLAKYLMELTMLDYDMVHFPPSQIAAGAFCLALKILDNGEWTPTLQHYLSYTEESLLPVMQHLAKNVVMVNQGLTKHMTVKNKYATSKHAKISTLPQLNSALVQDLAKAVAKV

[5] = target: Cyclin-dependent kinase 5/CDK5 activator 1 (Homo sapiens) (UniProt Q00535+Q15078); assay: as §2
Chain of Cyclin-dependent kinase 5/CDK5 activator 1 (Homo sapiens) (Q00535 whole entry): as the sequence (Q00535 whole entry, the tested form may be a part) above
Chain of Cyclin-dependent kinase 5/CDK5 activator 1 (Homo sapiens) (Q15078 99-307 partner limits assumed): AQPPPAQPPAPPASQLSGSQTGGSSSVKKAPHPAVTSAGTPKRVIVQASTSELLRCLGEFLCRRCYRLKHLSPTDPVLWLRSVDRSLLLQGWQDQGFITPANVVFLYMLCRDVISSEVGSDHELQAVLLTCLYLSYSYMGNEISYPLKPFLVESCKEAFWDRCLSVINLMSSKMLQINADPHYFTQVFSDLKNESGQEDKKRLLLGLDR

Chain of Cyclin-dependent kinase 1/cyclin B1 (P06493 whole entry, the tested form may be a part): as the sequence (P06493 whole entry, looked up) above
Chain of Cyclin-dependent kinase 1/cyclin B1 (P14635 whole entry, further chain, the tested form may be a part): as the sequence (P14635 whole entry, looked up) above

Compound	Ki [1]	Ki [2]	Ki ([3]; read-out: Ki)	Ki ([3]; sf9)	inhibition [4]	inhibition [5]	inhibition [3]
COc1cc2oc3ncc(OCc4ccccc4)c(-c4ccccc4)c3c2c(OC)c1O	0.2 µM	13.6 µM	5.4 µM				
CCCNC(=O)c1cnc2oc3ccc(O)cc3c2c1-c1ccccc1	1.6 µM	14.6 µM	4.4 µM				
COc1cc2oc3ncc(OCc4ccccc4)c(-c4ccccc4)c3c2cc1O	1.9 µM	13.8 µM		ND(Insoluble)			
Oc1ccc2oc3ncc(OCc4ccccc4)c(-c4ccccc4)c3c2c1					Active	Active	Active
NCCNC(=O)c1cnc2oc3ccc(O)cc3c2c1-c1ccccc1	2 µM	12.9 µM	4.8 µM				
COc1cc2c(oc3ncc(OCc4ccccc4)c(-c4ccccc4)c32)c2ccccc12	> 1000 µM	> 1000 µM	> 1000 µM				
CCNC(=O)c1cnc2oc3ccc(O)cc3c2c1-c1ccccc1	2.1 µM	16.7 µM		ND(Insoluble)			
CNC(=O)c1cnc2oc3ccc(O)cc3c2c1-c1ccccc1	> 1000 µM	> 1000 µM	9 µM				
COc1ccc2oc3ncc(OCc4ccccc4)c(-c4ccccc4)c3c2c1		25.1 µM					

From ChEMBL document CHEMBL3217736, “Novel aspects in structureactivity relationships of profiled 1-aza-9-oxafluorenes as inhibitors of Alzheimer's disease-relevant kinases cdk1, cdk5 and gsk3” (Medchemcomm, 2012)
